The subject of experiment [1] is Bacillus licheniformis (BL) ATCC 14580. The experiment is classed as cell-based. Conditions: ATCC 14580. Put shortly: (§1)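 Overnight LB cultures, 37 °C → mid-log → 5 × 10^5 CFU/mL; 1:1 with serially diluted peptides, o/n 37 °C, ambient air. MIC = lowest conc. inhibiting growth (plate reader). n = 3, mean reported.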
The test system of experiment [2] is Roseomonas mucosa (RM) ATCC BAA-692. The experiment is classed as cell-based. In a few lines: as §1
Experiment [3] concerns Sphingomonas paucimobilis (SP). In kind it is cell-based. In a few lines:
as §1

For another experiment, the system named is BL+DN coculture. The experiment is classed as cell-based, B. licheniformis + D. nishinomiyaensis. The procedure:
(§2) All of the bacterial species were grown overnight at 37 °C in LB broth. 10^7 CFU/mL of cells were resuspended in fresh culture and grown until the mid log phase. , The bacterial cells were adjusted to a concentration of 5 × 10^5 CFU/mL to quantify the MIC. Equal volumes of the respective bacterial cultures were incubated with the serially diluted peptides in 96-well microtiter plate and incubated overnight at 37 °C in ambient air. Microorganisms without peptides were treated as the positive control, while uninoculated broth was used as the negative control. The MIC was taken as the lowest peptide concentration at which observable bacteria growth was inhibited, as measured by a microplate reader (Biotek Synergy H1 microplate reader). Experiments were performed in triplicates, and the mean MIC values were determined. A similar study was performed to understand the effect of peptide purity, i.e., ranging from 70 to 95%, on the peptide MIC. […]
(§3) fresh medium at equal proportions (v/v). Multiple combinations of microbial cocultures were prepared […]
(§4) Table S2. Schematic representation of the microbial cocultures grown in lab.
(§5) Bacterial clusters Fungal clusters
(§6) Gram-positive Gram-negative
(§7) Actinobacteria/DN Firmicutes/BL Proteobacteria/SP Ascomycota/HR […]
(§8) (b) The three upper panels […]
(§9) controlling the growth of microbial cocultures.

Another experiment has as its system SP+BL coculture. In kind it is cell-based, S. paucimobilis + B. licheniformis. The procedure: as §2, §3, §4, §5, §6, §7, §8, §9
A further experiment deals with DN+SP coculture. The experiment is classed as cell-based, D. nishinomiyaensis + S. paucimobilis. The procedure: as §2, §3, §4, §5, §6, §7, §8, §9
A further experiment relates to HR+SP coculture. The experiment is classed as cell-based, H. resinae + S. paucimobilis. How it is done: as §2, §3, §4, §5, §6, §7, §8, §9
The next experiment deals with HR+DN coculture. In kind it is cell-based, H. resinae + D. nishinomiyaensis. How it is done:
as §2, §3, §4, §5, §6, §7, §8, §9

The test system of another experiment is HR+BL coculture. In kind it is cell-based, H. resinae + B. licheniformis. How it is done: as §2, §3, §4, §5, §6, §7, §8, §9
The next experiment deals with HR+BL+SP coculture. In kind it is cell-based, H. resinae + B. licheniformis + S. paucimobilis. The procedure: as §2, §3, §4, §5, §6, §7, §8, §9
Another experiment relates to HR+BL+DN coculture. In kind it is cell-based, H. resinae + B. licheniformis + D. nishinomiyaensis. How it is done: as §2, §3, §4, §5, §6, §7, §8, §9
The test system of another experiment is HR+DN+SP coculture. In kind it is cell-based, H. resinae + D. nishinomiyaensis + S. paucimobilis. The procedure: as §2, §3, §4, §5, §6, §7, §8, §9
The subject of a further experiment is B. licheniformis. In kind it is cell-based, Bacillus licheniformis. Conditions: 2 h. How it is done:
(§10) The stability of the peptides against one Gram-positive (B. licheniformis) and Gram-negative (S. paucimobilis) bacteria was assessed by determining their MIC in chymotrypsin (protease), serum, and salt (NaCl). The experiments were adopted from Selvarajan et.al. The fold change in MIC with respect to the control was calculated and determined for each peptide against the microbial clusters.
(§11) To determine the susceptibility of the engineered peptides, which are abundant in Trp, to protease degradation, chymotrypsin, which cleaves Tyr, Phe, and Trp at physiological pH was chosen as the model protease. The protocol described by Wang et.al. (2014) was used with slight modifications. Peptides were incubated with chymotrypsin at a molar ratio of 40:1 (peptide: protease) in 10 mM PBS buffer (pH7.4) at 37 °C, and samples were analyzed after 2 h. The enzyme reaction was terminated by incubating the samples at 80 °C for 10 min. The incubated peptide mixtures were then serially diluted in 96-well plates to determine the MIC values of the microbial strains.
(§12) The stability of the peptides in the presence of the serum was tested using a 10% fetal bovine serum (heat inactivated).
(§13) We also studied the effects of 600 mM NaCl (in vitro) and natural seawater (NSW) on the MICs of the engineered peptides.

For the next experiment, the system named is S. paucimobilis. In kind it is cell-based, Sphingomonas paucimobilis. Conditions: 2 h. How it is done: as §10, §11, §12, §13
In experiment [4] the test system is Dermacoccus nishinomiyaensis (DN) ATCC 29093. The experiment is classed as cell-based. In a few lines: as §1
Experiment [5] concerns Kocuria rosea (KR) ATCC 186. The experiment is classed as cell-based. In a few lines:
as §1

The test system of experiment [6] is Macrococcus caseolyticus (MC) ATCC 13548. The experiment is classed as cell-based. In a few lines: as §1
Experiment [7] concerns Micrococcus yunnanensis (MY) ATCC 12698. The experiment is classed as cell-based. In a few lines: as §1
The subject of experiment [8] is Pseudomonas aeruginosa (PA) ATCC 39327. In kind it is cell-based. Conditions: ATCC 39327. In a few lines: as §1
Experiment [9] deals with Hormoconis resinae (HR) ATCC 20267. In kind it is cell-based. The procedure:
All of the bacterial species were grown overnight at 37 °C in LB broth. 10^7 CFU/mL of cells were resuspended in fresh culture and grown until the mid log phase. , The bacterial cells were adjusted to a concentration of 5 × 10^5 CFU/mL to quantify the MIC. Equal volumes of the respective bacterial cultures were incubated with the serially diluted peptides in 96-well microtiter plate and incubated overnight at 37 °C in ambient air. Microorganisms without peptides were treated as the positive control, while uninoculated broth was used as the negative control. The MIC was taken as the lowest peptide concentration at which observable bacteria growth was inhibited, as measured by a microplate reader (Biotek Synergy H1 microplate reader). Experiments were performed in triplicates, and the mean MIC values were determined. A similar study was performed to understand the effect of peptide purity, i.e., ranging from 70 to 95%, on the peptide MIC.
The same experimental procedures that were conducted for the antibacterial assay were used to determine the MIC of the peptides against the fungal strain, H. resinae.

Each structure is given as a SMILES string. A value given as a limit tells only on which side of the number the result lay.

The term MIC denotes the lowest concentration found to suppress growth.

For `CC[C@H](C)[C@H](N)C(=O)N[C@@H](CC(C)C)C(=O)N1CCC[C@H]1C(=O)N[C@@H](Cc1c[nH]c2ccccc12)C(=O)N[C@@H](CCCCN)C(=O)N[C@@H](Cc1c[nH]c2ccccc12)C(=O)N1CCC[C@H]1C(=O)N[C@@H](Cc1c[nH]c2ccccc12)C(=O)N[C@@H](Cc1c[nH]c2ccccc12)C(=O)N1CCC[C@H]1C(=O)N[C@@H](Cc1c[nH]c2ccccc12)C(=O)N[C@@H](CCCCN)C(=O)N[C@@H](CCCNC(=N)N)C(=O)O` [P3], the MIC turned out to be 1.9 µM in experiment [1]; 1.9 µM in experiment [2]; 1.9 µM in experiment [3]; 30 µM in the experiment with BL+DN coculture; 1.87 µM in the experiment on SP+BL coculture; 3.7 µM in the experiment with DN+SP coculture. Further, the MIC worked out at 0.9 µM with HR+SP coculture; 0.9 µM with HR+DN coculture; 0.9 µM with HR+BL coculture; 3.7 µM in the experiment with HR+BL+SP coculture; 7.5 µM in the experiment with HR+BL+DN coculture; 15 µM with HR+DN+SP coculture. Also, the “MIC under different treatments” value in the experiment with B. licheniformis and in the experiment with S. paucimobilis was not above 4 µM each time.
Consider `CC[C@H](C)[C@H](N)C(=O)N[C@@H](CC(C)C)C(=O)N[C@@H](Cc1ccc(O)cc1)C(=O)N[C@@H](Cc1c[nH]c2ccccc12)C(=O)N[C@@H](CCCCN)C(=O)N[C@@H](Cc1c[nH]c2ccccc12)C(=O)N1CCC[C@H]1C(=O)N[C@@H](Cc1c[nH]c2ccccc12)C(=O)N[C@@H](Cc1c[nH]c2ccccc12)C(=O)N1CCC[C@H]1C(=O)N[C@@H](Cc1c[nH]c2ccccc12)C(=O)N[C@@H](CCCNC(=N)N)C(=O)N[C@@H](CCCNC(=N)N)C(=O)O` [P17], for which the MIC in experiment [1] is 0.9 µM; in experiment [4], 0.9 µM; in experiment [5], 1.9 µM; in experiment [6] it was 1.9 µM; in experiment [7], 0.9 µM; in [8] it was 3.8 µM. Also, the MIC in [3] came to 0.9 µM; in experiment [9] it was 3.8 µM; with BL+DN coculture, 1.87 µM; in the experiment on SP+BL coculture, 7.5 µM; in the experiment with DN+SP coculture it was 15 µM; in the experiment on HR+SP coculture it was 7.5 µM. For the same compound, the MIC in the experiment with HR+DN coculture was found to be 0.9 µM; in the experiment on HR+BL coculture it was 7.5 µM; in the experiment with HR+BL+SP coculture, 0.9 µM; in the experiment with HR+BL+DN coculture, 0.9 µM; in the experiment on HR+DN+SP coculture, 7.5 µM. Further, the “MIC under different treatments” value with B. licheniformis and in the experiment with S. paucimobilis was not above 4 µM each time.

(Values after article PMC12442081, “Combating Fuel Biocontamination: Tailored Antimicrobial Peptides and an Innovative Delivery Strategy” (ACS Applied Bio Materials, 2025).)
